Reference: paper PMC10648852, “Molecular drivers of resistance to sulbactam-durlobactam in contemporary clinical isolates of Acinetobacter baumannii” (Antimicrobial Agents and Chemotherapy, 2023)
Like-named read-outs stand apart in the source and are kept apart here.

Assays:
A. baumannii PBP3 H370Y = assay: Acylation rate constant (kinact/Ki), fluorescence anisotropy competition with BOCILLIN
A. baumannii PBP3 S395F [1] = assay: as above; settings: variant data from McLeod et al. (2018)
[2] = tested on: A. baumannii wild-type PBP3; assay: as above; settings: Wildtype PBP3
[3] = tested on: A. baumannii KAB1544 and efflux overexpression mutants; assay: Broth microdilution MIC, isogenic A. baumannii overexpression efflux mutants; format: cell-based; settings: for MIC: Acinetobacter baumannii
Protocol: To further assess the role of efflux in SUL-DUR activity against Acinetobacter spp., two panels of A. baumannii isogenic strains were tested. The first consisted of 7 members of an A. baumannii transposon library ([28]) with single gene disruptions in the adeABC, adeIJK, or adeT loci as compared to the parent strain, AB5075. […] This panel of strains consists of four different point mutants in AdeR and five different point mutants in AdeS, which result in the upregulation of AdeABC expression. In addition, this panel contains chromosomal deletions of adeL and adeN, which result in overexpression of AdeFGH and AdeIJK, respectively ([29]).
In contrast, sulbactam, SUL-DUR, and imipenem MIC values were unaffected by these mutants (Table 4).
The AB5075 parent strain as well as transposon interrupted AdeABC, AdeIJK, and AdeT were purchased from the Manoil laboratory at the University of Washington from their arrayed transposon mutant collection ([28]). The KAB1544 parent as well as efflux pump regulator mutants and deletions were constructed as previously described ([29]).
(§1) Antimicrobial susceptibility testing was performed using broth microdilution following standardized methods established by the Clinical Laboratory Standards Institute (CLSI) ([35], [36]). Quality control testing was performed as specified by CLSI using A. baumannii NCTC 13304 ([35]). MIC values were interpreted using CLSI breakpoints for all antimicrobial agents except those for which CLSI breakpoints are not available ([35]). SUL-DUR was tested as twofold dilutions of sulbactam in combination with a fixed concentration of 4 µg/mL durlobactam ([35]).

[4] = tested on: isogenic A. baylyi ADP1 panel encoding wildtype or mutant PBP3; assay: Broth microdilution MIC, isogenic A. baylyi panel (PBP3 variants with or without overexpressed β-lactamases); format: cell-based; settings: for MIC: Acinetobacter baylyi, A. baylyi
Protocol: To understand the effect of PBP3 variants on whole cell activity in the absence of other resistance determinants, the MIC values of sulbactam, SUL-DUR and comparator β-lactams were measured against an isogenic A. baylyi panel engineered to contain individual strains in which the endogenous PBP3 was replaced with the variant of interest.
Each of the A. baylyi panel members were then transformed with plasmids that constitutively expressed five distinct, representative β-lactamases commonly found in Acinetobacter clinical isolates (TEM-1, ADC-30, OXA-23, OXA-24 or OXA-66) and evaluated for changes in antibiotic susceptibility. […] . […] .
The isogenic A. baylyi panel used for chromosomal expression of various PBP3 mutants with or without constitutive expression of various β-lactamases were constructed as part of this study. The A. baylyi ADP1 PBP3 ORF was cloned into pUC19 with a gentamicin cassette inserted downstream of the PBP3 ORF for selection purposes. Additionally, 500 bp of flanking homology to the ADP1 genome were inserted upstream of the PBP3 ORF and downstream of the gentamicin cassette. […] Linear DNA consisting of the 500 bp upstream-PBP3-Gent-500 bp downstream fragment was cloned out of the pUC19 plasmid by PCR and used for transformation of the ADP1 strain. The strain was grown at 30°C overnight in LB medium shaking at 250 rpm. Seventy microliters of the overnight ADP1 culture were combined with 1 mL of fresh LB and 200 ng of linear DNA fragment and incubated for 5 h at 30°C and shaking at 200 rpm. Various dilutions of each culture were plated on LB agar supplemented with 10 µg/mL of gentamicin to select for transformants with successful chromosomal integrations. Integrants were verified by Sanger sequencing using purified genomic DNA.
For the constitutive expression of various β-lactamases, ORFs of bla TEM-1, bla ADC-30, bla OXA-23, bla OXA-24, and bla OXA-66 were cloned by PCR from various clinical strains that encode these genes and inserted into the pWH1266 plasmid modified to encode a kanamycin cassette for selection. These plasmids along with an empty vector were used to transform each of the A. baylyi ADP1 strains engineered above that encode wild-type PBP3 or variants. Transformations were carried out as done above with selection on LB agar supplemented with 20 µg/mL of kanamycin.
as §1

A. baumannii PBP3 N392T = assay: Acylation rate constant (kinact/Ki), fluorescence anisotropy competition with BOCILLIN
A. baumannii PBP3 S390T [5] = tested on: A. baumannii PBP3 S390T; parameters: method as in McLeod et al. (2018); settings: average ± SD, ref McLeod et al. (2018); cited from earlier work
A. baumannii PBP3 N377Y = assay: Acylation rate constant (kinact/Ki), fluorescence anisotropy competition with BOCILLIN
A. baumannii PBP3 S395F [6] = tested on: A. baumannii PBP3 S395F; parameters: method as in McLeod et al. (2018); settings: average ± SD, ref McLeod et al. (2018); cited from earlier work
A. baumannii PBP3 Q488K = assay: Acylation rate constant (kinact/Ki), fluorescence anisotropy competition with BOCILLIN
A. baumannii PBP3 S390T [7] = assay: as above; settings: variant data from McLeod et al. (2018)

Which results are given for `C[C@@H](O)[C@H]1C(=O)N2C(C(=O)O)=C(SCCN=CN)C[C@H]12` [imipenem]?
% WT (A. baumannii PBP3 H370Y): 106.7%; k inact/K i (A. baumannii PBP3 H370Y; average ± SD): 480 ± 40 ([2]) M^-1s^-1; % WT (A. baumannii PBP3 S395F [1]): 2.0%; % WT [2]: 100%; k inact/K i ([2]; average ± SD): 450 ± 60 ([10]) M^-1s^-1; MIC ([3]; AdeR A91V, AdeABC overexpressed, read-out: MIC): 0.5 µg/mL; MIC ([3]; AdeR D20N, AdeABC overexpressed, read-out: MIC): 0.5 µg/mL; MIC ([3]; AdeR E219A, AdeABC overexpressed, read-out: MIC): 0.25 µg/mL; MIC ([3]; AdeR P116L, AdeABC overexpressed, read-out: MIC): 0.5 µg/mL; MIC ([3]; AdeS A94V, AdeABC overexpressed, read-out: MIC): 0.5 µg/mL; MIC ([3]; AdeS G30D, AdeABC overexpressed, read-out: MIC): 0.5 µg/mL; MIC ([3]; AdeS G103D, AdeABC overexpressed, read-out: MIC): 0.25 µg/mL; MIC ([3]; AdeS R152K, AdeABC overexpressed, read-out: MIC): 0.5 µg/mL; MIC ([3]; AdeS T153M, AdeABC overexpressed, read-out: MIC): 0.5 µg/mL; MIC ([3]; Parent (KAB1544), no efflux pump overexpressed, read-out: MIC): 0.25 µg/mL; MIC ([3]; ΔadeL, AdeFGH overexpressed): 0.25 µg/mL; MIC ([3]; ΔadeN, AdeIJK overexpressed): 0.25 µg/mL; change in MIC values relative to the parent strain ([3]; most of the AdeR and AdeS mutants (AdeABC overexpression), KAB1544): unaffected; MIC ([4]; PBP3 H370Y, overexpressed ADC-30): 0.03 µg/mL; MIC ([4]; PBP3 H370Y, overexpressed OXA-23): 4 µg/mL; MIC ([4]; PBP3 H370Y, overexpressed OXA-24): > 8 µg/mL; MIC ([4]; PBP3 H370Y, overexpressed OXA-66): 0.06 µg/mL; MIC ([4]; PBP3 H370Y, overexpressed TEM-1): 0.03 µg/mL; MIC ([4]; PBP3 H370Y, β-lactamase None (empty vector)): 0.03 µg/mL; MIC ([4]; PBP3 Wildtype, overexpressed ADC-30, read-out: MIC): 0.13 µg/mL; MIC ([4]; PBP3 Wildtype, overexpressed OXA-23, read-out: MIC): 8 µg/mL; MIC ([4]; PBP3 Wildtype, overexpressed OXA-24, read-out: MIC): 8 µg/mL; MIC ([4]; PBP3 Wildtype, overexpressed OXA-66, read-out: MIC): 0.13 µg/mL; MIC ([4]; PBP3 Wildtype, overexpressed TEM-1, read-out: MIC): 0.03 µg/mL; MIC ([4]; PBP3 Wildtype, β-lactamase None (empty vector), read-out: MIC): 0.03 µg/mL; increase in MIC values in the presence of β-lactamase ([4]; wildtype PBP3 strain, ADC-30, OXA-23, OXA-24 and OXA-66): ≥ 4 fold; % WT (A. baumannii PBP3 N392T): 175.6%; k inact/K i (A. baumannii PBP3 N392T; average ± SD): 790 ± 50 ([2]) M^-1s^-1; k inact/K i (A. baumannii PBP3 S390T [5]): 540 ± 40 ([3]) M^-1s^-1; % WT (A. baumannii PBP3 N377Y): 62.2%; k inact/K i (A. baumannii PBP3 N377Y; average ± SD): 280 ± 10 ([2]) M^-1s^-1; k inact/K i (A. baumannii PBP3 S395F [6]): 8.8 ± 0.7 ([3]) M^-1s^-1; % WT (A. baumannii PBP3 Q488K): 82.2%; k inact/K i (A. baumannii PBP3 Q488K; average ± SD): 370 ± 20 ([2]) M^-1s^-1; % WT (A. baumannii PBP3 S390T [7]): 120%
